Species on record: Rattus norvegicus
Assay: Open TG-GATES - Regimen: Daily Repeat
Assay type: toxicity, organism-based, Sprague-Dawley
Parameters: regimen Daily Repeat, gender Male, age 6 weeks
Settings: in vivo, po, route gavage; for APTT / Bas / Eos / Fbg / Hb / Ht / Lym / MCH / MCHC / MCV / Mono / Neu / PT / Plat / RBC / Ret / WBC: tissue Blood; for KIDNEY_L / KIDNEY_R / KIDNEY_TOTAL: tissue Kidney; for LIVER: tissue Liver; for A/G / ALP / ALT / AST / BUN / CRE / Ca / Cl / DBIL / GLC / IP / K / LDH / Na / PL / RALB / TBIL / TC / TG / TP / gamma-GTP: tissue Plasma
[1] = 120 mg/kg, 72 h, dose level Middle, time 3 day
[2] = 120 mg/kg, […], dose level Middle, time 7 day
[3] = 120 mg/kg, […], dose level Middle, time 14 day
[4] = 120 mg/kg, […], dose level Middle, time 28 day
[5] = 400 mg/kg, 72 h, dose level High, time 3 day
[6] = 400 mg/kg, […], dose level High, time 7 day
[7] = 400 mg/kg, […], dose level High, time 14 day
[8] = 400 mg/kg, […], dose level High, time 28 day

## COc1ccc(Cc2nccc3cc(OC)c(OC)cc23)cc1OC [PAPAVERINE]
[1]
  TERMINAL_BW: 245.2 g
  APTT: 22.2 s
  Bas: 0%
  Eos: 1%
  Fbg: 316.2 mg/dL
  Hb: 13.6 g/dL
  Ht: 40.6%
  Lym: 77.8%
  MCH: 20.8 pg
  MCHC: 33.5%
  MCV: 62.1 fL
  Mono: 2.6%
  Neu: 17.8%
  PT: 15.3 s
  Plat: 116.6 x10_4/uL
  RBC: 654.2 x10_4/ul
  Ret: 6.2%
  WBC: 84.6 x10_2/uL
  KIDNEY_L: 1 g
  KIDNEY_R: 1 g
  KIDNEY_TOTAL: 2 g
  LIVER: 11.7 g
  A/G: 1.2
  ALP: 1731.2 IU/L
  ALT: 43 IU/L
  AST: 72 IU/L
  BUN: 15.8 mg/dL
  CRE: 0.2 mg/dL
  Ca: 10.9 mg/dL
  Cl: 106.8 meq/L
  DBIL: 0 mg/dL
  GLC: 195.8 mg/dL
  IP: 7.3 mg/dL
  K: 4.3 meq/L
  LDH: 179.2 IU/L
  Na: 142.6 meq/L
  PL: 144 mg/dL
  RALB: 3.1 g/dL
  TBIL: 0.006 mg/dL
  TC: 77.2 mg/dL
  TG: 98.6 mg/dL
  TP: 5.7 g/dL
  gamma-GTP: 1.2 IU/L
[2]
  TERMINAL_BW: 287 g
  APTT: 21.9 s
  Bas: 0%
  Eos: 1%
  Fbg: 314.8 mg/dL
  Hb: 13.4 g/dL
  Ht: 39.9%
  Lym: 76.8%
  MCH: 21 pg
  MCHC: 33.6%
  MCV: 62.6 fL
  Mono: 2.8%
  Neu: 18.6%
  PT: 15 s
  Plat: 122.9 x10_4/uL
  RBC: 638.8 x10_4/ul
  Ret: 6.6%
  WBC: 106.6 x10_2/uL
  KIDNEY_L: 1.2 g
  KIDNEY_R: 1.2 g
  KIDNEY_TOTAL: 2.4 g
  LIVER: 13.8 g
  A/G: 1.2
  ALP: 1633.8 IU/L
  ALT: 45.4 IU/L
  AST: 68.8 IU/L
  BUN: 17.2 mg/dL
  CRE: 0.2 mg/dL
  Ca: 10.8 mg/dL
  Cl: 106 meq/L
  DBIL: 0 mg/dL
  GLC: 197.4 mg/dL
  IP: 7.2 mg/dL
  K: 4 meq/L
  LDH: 173.4 IU/L
  Na: 141.4 meq/L
  PL: 149 mg/dL
  RALB: 3.1 g/dL
  TBIL: 0 mg/dL
  TC: 73.4 mg/dL
  TG: 123.2 mg/dL
  TP: 5.6 g/dL
  gamma-GTP: 2.2 IU/L
[3]
  TERMINAL_BW: 331.7 g
  APTT: 22.2 s
  Bas: 0%
  Eos: 1%
  Fbg: 341.6 mg/dL
  Hb: 14.1 g/dL
  Ht: 42.1%
  Lym: 71.2%
  MCH: 20 pg
  MCHC: 33.6%
  MCV: 59.7 fL
  Mono: 3.4%
  Neu: 22.8%
  PT: 15.1 s
  Plat: 117.8 x10_4/uL
  RBC: 706.4 x10_4/ul
  Ret: 5.2%
  WBC: 121.3 x10_2/uL
  KIDNEY_L: 1.3 g
  KIDNEY_R: 1.3 g
  KIDNEY_TOTAL: 2.6 g
  LIVER: 14.4 g
  A/G: 1.1
  ALP: 1378.8 IU/L
  ALT: 48 IU/L
  AST: 75.4 IU/L
  BUN: 18.6 mg/dL
  CRE: 0.2 mg/dL
  Ca: 10.5 mg/dL
  Cl: 106.6 meq/L
  DBIL: 0 mg/dL
  GLC: 191 mg/dL
  IP: 7.2 mg/dL
  K: 4 meq/L
  LDH: 166 IU/L
  Na: 142.6 meq/L
  PL: 156 mg/dL
  RALB: 3.1 g/dL
  TBIL: 0.014 mg/dL
  TC: 81.8 mg/dL
  TG: 109.8 mg/dL
  TP: 5.8 g/dL
  gamma-GTP: 2.4 IU/L
[4]
  TERMINAL_BW: 380.1 g
  APTT: 23.2 s
  Bas: 0%
  Eos: 1%
  Fbg: 339.2 mg/dL
  Hb: 14.3 g/dL
  Ht: 43.4%
  Lym: 77.6%
  MCH: 18.5 pg
  MCHC: 33%
  MCV: 56.1 fL
  Mono: 2.8%
  Neu: 17%
  PT: 15.8 s
  Plat: 100.4 x10_4/uL
  RBC: 773 x10_4/ul
  Ret: 2.7%
  WBC: 122.5 x10_2/uL
  KIDNEY_L: 1.4 g
  KIDNEY_R: 1.4 g
  KIDNEY_TOTAL: 2.8 g
  LIVER: 15.7 g
  A/G: 1.1
  ALP: 1042.8 IU/L
  ALT: 40.4 IU/L
  AST: 66.4 IU/L
  BUN: 18.2 mg/dL
  CRE: 0.2 mg/dL
  Ca: 10.1 mg/dL
  Cl: 106.2 meq/L
  DBIL: 0 mg/dL
  GLC: 191.4 mg/dL
  IP: 6 mg/dL
  K: 3.9 meq/L
  LDH: 120 IU/L
  Na: 141.8 meq/L
  PL: 129.8 mg/dL
  RALB: 3.1 g/dL
  TBIL: 0.01 mg/dL
  TC: 65.2 mg/dL
  TG: 119.8 mg/dL
  TP: 5.9 g/dL
  gamma-GTP: 2 IU/L
[5]
  TERMINAL_BW: 239.4 g
  APTT: 23.7 s
  Bas: 0%
  Eos: 1%
  Fbg: 314.4 mg/dL
  Hb: 13.5 g/dL
  Ht: 39.4%
  Lym: 73%
  MCH: 20.9 pg
  MCHC: 34.2%
  MCV: 61.1 fL
  Mono: 2%
  Neu: 23%
  PT: 15 s
  Plat: 111.3 x10_4/uL
  RBC: 644.8 x10_4/ul
  Ret: 5%
  WBC: 85.7 x10_2/uL
  KIDNEY_L: 1 g
  KIDNEY_R: 1.1 g
  KIDNEY_TOTAL: 2.1 g
  LIVER: 11.8 g
  A/G: 1.3
  ALP: 1542 IU/L
  ALT: 48.4 IU/L
  AST: 75.8 IU/L
  BUN: 16.6 mg/dL
  CRE: 0.1 mg/dL
  Ca: 10.9 mg/dL
  Cl: 107.4 meq/L
  DBIL: 0 mg/dL
  GLC: 179.8 mg/dL
  IP: 7.3 mg/dL
  K: 4.3 meq/L
  LDH: 160.2 IU/L
  Na: 143 meq/L
  PL: 148.4 mg/dL
  RALB: 3.1 g/dL
  TBIL: 0.008 mg/dL
  TC: 83 mg/dL
  TG: 78.4 mg/dL
  TP: 5.6 g/dL
  gamma-GTP: 1.4 IU/L
[6]
  TERMINAL_BW: 267.4 g
  APTT: 24.2 s
  Bas: 0%
  Eos: 0.4%
  Fbg: 337.4 mg/dL
  Hb: 13.6 g/dL
  Ht: 40.4%
  Lym: 74.4%
  MCH: 20.9 pg
  MCHC: 33.7%
  MCV: 61.9 fL
  Mono: 3%
  Neu: 20.8%
  PT: 15.2 s
  Plat: 126.4 x10_4/uL
  RBC: 652 x10_4/ul
  Ret: 5.8%
  WBC: 107.2 x10_2/uL
  KIDNEY_L: 1.2 g
  KIDNEY_R: 1.2 g
  KIDNEY_TOTAL: 2.3 g
  LIVER: 13.4 g
  A/G: 1.2
  ALP: 1249.6 IU/L
  ALT: 42.6 IU/L
  AST: 68 IU/L
  BUN: 18 mg/dL
  CRE: 0.2 mg/dL
  Ca: 10.9 mg/dL
  Cl: 107 meq/L
  DBIL: 0 mg/dL
  GLC: 191.8 mg/dL
  IP: 7.2 mg/dL
  K: 4.2 meq/L
  LDH: 164 IU/L
  Na: 142 meq/L
  PL: 149.4 mg/dL
  RALB: 3.1 g/dL
  TBIL: 0 mg/dL
  TC: 79.4 mg/dL
  TG: 91 mg/dL
  TP: 5.8 g/dL
  gamma-GTP: 2 IU/L
[7]
  TERMINAL_BW: 315.9 g
  APTT: 24.2 s
  Bas: 0%
  Eos: 1%
  Fbg: 321.6 mg/dL
  Hb: 14.1 g/dL
  Ht: 42.3%
  Lym: 75.4%
  MCH: 19.3 pg
  MCHC: 33.3%
  MCV: 58.2 fL
  Mono: 2.8%
  Neu: 19.2%
  PT: 15.4 s
  Plat: 128.5 x10_4/uL
  RBC: 728.6 x10_4/ul
  Ret: 4.3%
  WBC: 108.5 x10_2/uL
  KIDNEY_L: 1.4 g
  KIDNEY_R: 1.4 g
  KIDNEY_TOTAL: 2.7 g
  LIVER: 14.4 g
  A/G: 1.1
  ALP: 1494.6 IU/L
  ALT: 46.4 IU/L
  AST: 71 IU/L
  BUN: 17 mg/dL
  CRE: 0.2 mg/dL
  Ca: 10.5 mg/dL
  Cl: 106.8 meq/L
  DBIL: 0 mg/dL
  GLC: 183 mg/dL
  IP: 7.5 mg/dL
  K: 4.1 meq/L
  LDH: 142.6 IU/L
  Na: 142.8 meq/L
  PL: 143.8 mg/dL
  RALB: 3.1 g/dL
  TBIL: 0.02 mg/dL
  TC: 73.6 mg/dL
  TG: 81.8 mg/dL
  TP: 5.8 g/dL
  gamma-GTP: 2.4 IU/L
[8]
  TERMINAL_BW: 373.4 g
  APTT: 25.6 s
  Bas: 0%
  Eos: 1%
  Fbg: 328 mg/dL
  Hb: 14.4 g/dL
  Ht: 43.7%
  Lym: 71.8%
  MCH: 18.6 pg
  MCHC: 33%
  MCV: 56.6 fL
  Mono: 2.2%
  Neu: 23.8%
  PT: 15.9 s
  Plat: 109.9 x10_4/uL
  RBC: 772.5 x10_4/ul
  Ret: 2.6%
  WBC: 94.3 x10_2/uL
  KIDNEY_L: 1.5 g
  KIDNEY_R: 1.5 g
  KIDNEY_TOTAL: 2.9 g
  LIVER: 16.5 g
  A/G: 1.1
  ALP: 1162 IU/L
  ALT: 47 IU/L
  AST: 69.5 IU/L
  BUN: 19.8 mg/dL
  CRE: 0.2 mg/dL
  Ca: 10.3 mg/dL
  Cl: 106.2 meq/L
  DBIL: 0 mg/dL
  GLC: 182 mg/dL
  IP: 6.6 mg/dL
  K: 4 meq/L
  LDH: 141 IU/L
  Na: 142.5 meq/L
  PL: 146.2 mg/dL
  RALB: 3.2 g/dL
  TBIL: 0.0075 mg/dL
  TC: 82.2 mg/dL
  TG: 86 mg/dL
  TP: 6.1 g/dL
  gamma-GTP: 2.2 IU/L
